Measurements from PMC8761492 (Life Science Alliance, 2022).

Tested on: SARS-CoV-2 B.1.1.7
Assay: microbe, parasite or virus in culture
Type: cell-based
Settings: Severe acute respiratory syndrome coronavirus 2, Caco-2, pretreated 2 h, 24 h, mean ± SEM

## CCC(CC)COC(=O)[C@H](C)N[P@](=O)(OC[C@H]1O[C@@](C#N)(c2ccc3c(N)ncnn23)[C@H](O)[C@@H]1O)Oc1ccccc1 [Remdesivir]
  IC50: 0.023 µM
